Measured values taken from patent US10793527B2, “Adenosine monophosphate-activated protein kinase agonist” (NATIONAL YANG-MING UNIVERSITY, priority 2016, dated 2020).

Columns and labels:
PLC/PRF/5 (PLC5) cells = experiment: Cell viability of liver cancer cells (Prestoblue), PLC5; format: cell-based; conditions: PLC5 cells, 48 hr
Experimental: Hepatoma cell Huh-7 was obtained from Health Science Research Resources Bank (HSRRB, Osaka. Japan; JCRB0403); Hepatoma cell PLC/PRF/5 (PLC5), Sk-Hep-1 and HCC1806 were obtained from the American Type Culture Collection (ATCC, Manassas, Va.). All cell lines are cultured immediately and frozen, so the frozen cells can be thawed every 3 months to allow experiments are conducted with the same batch of cells.
Analysis is performed using a commercial kit Prestoblue assay produced by Thermo Fisher Scientific. Three liver cancer cell lines PLC/PRF/5, SK-hep1, and Huh-7 are cultured with compound SCT-1015 for 48 hours and 72 hours, respectively. […] The results support that the compound of the present invention can activate AMPK to inhibit the proliferation of liver cancer cells.

AMPK T172 = experiment: Detection of AMPK phosphorylation by ELISA assay in PLC5 cells; format: cell-based; conditions: PLC5 cultured with 10 μM compound for 24 hours, compared to control group
Experimental: In this analysis, the commercial kit AMPK […] Phospho-ELISA Kit (KHO0651) produced by ThermoFisher Science is utilized. The hepatoma cell PLC5 is cultured with 10 μM of the compound for 24 hours, and the analysis is performed according to the manual, and the absorbance was detected at a wavelength of 450 nm.

[1] = Treatment of diet-induced obesity (DIO) mice, body weight; format: in vivo; conditions: compared to the control group of mice (FIG. 6)
Description: The male mice C57BL/6 were purchased from the National Laboratory Animal Center (NLAC, Taipei, Taiwan) and fed high-fat-die for 4 weeks to establish the diet-induced obesity (DIO) mouse model for subsequent experiments

**Q.** Which IC50 (PLC/PRF/5 (PLC5) cells) does the source give for N#Cc1ccc(-c2ccnc(Nc3cccc(NC(=O)Nc4ccc(Cl)c(C(F)(F)F)c4)c3)n2)cc1 [SCT-1013, 1-(4-chloro-3-(trifluoromethyl)phenyl)-3-(3-((4-(4-cyanophenyl)pyrimidin-2-yl)amino)phenyl)urea] here?
**A.** > 20 µM

**Q.** What about the “AMPK T172 activity” value (AMPK T172) of the same compound?
**A.** 1.0 fold

**Q.** With Cc1cc(-c2ccnc(Nc3cccc(NC(=O)Nc4ccc(Cl)c(C(F)(F)F)c4)c3)n2)ccc1F [SCT-1019, 1-(4-chloro-3-(trifluoromethyl)phenyl)-3-(3-((4-(4-fluoro-3-methylphenyl)pyrimidin-2-yl)amino)phenyl)urea] as the compound, how does the IC50 (PLC/PRF/5 (PLC5) cells) read?
**A.** > 20 µM

**Q.** And the “AMPK T172 activity” value (AMPK T172)?
**A.** 1.0 fold

**Q.** With CSc1cccc(-c2ccnc(Nc3cccc(NC(=O)Nc4ccc(Cl)c(C(F)(F)F)c4)c3)n2)c1 [SCT-1018, 1-(4-chloro-3-(trifluoromethyl)phenyl)-3-(3-((4-(3-(methylthio)phenyl)pyrimidin-2-yl)amino)phenyl)urea] as the compound, how does the IC50 (PLC/PRF/5 (PLC5) cells) read?
**A.** > 20 µM

**Q.** And the “AMPK T172 activity” value (AMPK T172)?
**A.** 1.1 fold

**Q.** For O=C(Nc1cccc(Nc2nccc(-c3ccc[nH]3)n2)c1)Nc1cccc(C(=O)O)c1 [SCT-1038, 3-(3-(3-((4-(1H-pyrrol-2-yl)pyrimidin-2-yl)amino)phenyl)ureido)benzoic acid], which IC50 (PLC/PRF/5 (PLC5) cells) is on record?
**A.** > 20 µM

**Q.** Which IC50 (PLC/PRF/5 (PLC5) cells) does the source give for O=C(Nc1cccc(Nc2cc(-c3ccccc3)ncn2)c1)Nc1ccc(Cl)c(C(F)(F)F)c1 [SCT-1022] here?
**A.** > 20 µM

**Q.** And the “AMPK T172 activity” value (AMPK T172)?
**A.** 1.4 fold

**Q.** Which IC50 (PLC/PRF/5 (PLC5) cells) does the source give for Cc1ccc(C(=O)Nc2ccc(Cl)c(C(F)(F)F)c2)cc1Nc1nccc(-c2cc(Cl)cc(Cl)c2)n1 [SCT-1012, N-(4-chloro-3-(trifluoromethyl)phenyl)-3-((4-(3,5-dichlorophenyl)pyrimidin-2-yl)amino)-4-methylbenzamide] here?
**A.** > 20 µM

**Q.** What about the “AMPK T172 activity” value (AMPK T172) of the same compound?
**A.** 1.0 fold

**Q.** Which IC50 (PLC/PRF/5 (PLC5) cells) does the source give for Cc1ccc(F)c(NC(=O)Nc2cccc(Nc3nccc(-c4ccc[nH]4)n3)c2)c1 [SCT-1034] here?
**A.** > 20 µM

**Q.** Which IC50 (PLC/PRF/5 (PLC5) cells) does the source give for N#Cc1cccc(-c2ccnc(Nc3cccc(NC(=O)Nc4ccc(Cl)c(C(F)(F)F)c4)c3)n2)c1 [SCT-1014] here?
**A.** > 20 µM

**Q.** What about the “AMPK T172 activity” value (AMPK T172) of the same compound?
**A.** 1.0 fold

**Q.** Which IC50 (PLC/PRF/5 (PLC5) cells) does the source give for COC(=O)c1cc(NC(=O)Nc2cccc(Nc3nccc(-c4ccc[nH]4)n3)c2)ccc1Cl [SCT-1041, Methyl 5-(3-(3-((4-(1H-pyrrol-2-yl)pyrimidin-2-yl)amino)phenyl)ureido)-2-chlorobenzoate] here?
**A.** > 20 µM

**Q.** With O=C(Nc1cccc(Nc2nccc(-c3ccc(OC(F)(F)F)cc3)n2)c1)Nc1ccc(Cl)c(C(F)(F)F)c1 [SCT-1020, 1-(4-chloro-3-(trifluoromethyl)phenyl)-3-(3-((4-(4-(trifluoromethoxy)phenyl)pyrimidin-2-yl)amino)phenyl)urea] as the compound, how does the IC50 (PLC/PRF/5 (PLC5) cells) read?
**A.** > 20 µM

**Q.** And the “AMPK T172 activity” value (AMPK T172)?
**A.** 1.3 fold

**Q.** Which IC50 (PLC/PRF/5 (PLC5) cells) does the source give for O=C(Nc1cccc(Nc2nccc(-c3cccs3)n2)c1)Nc1ccc(Cl)c(C(F)(F)F)c1 [SCT-1017, 1-(4-chloro-3-(trifluoromethyl)phenyl)-3-(3-((4-(thiophen-2-yl)pyrimidin-2-yl)amino)phenyl)urea] here?
**A.** > 20 µM

**Q.** What about the “AMPK T172 activity” value (AMPK T172) of the same compound?
**A.** 1.1 fold

**Q.** Which IC50 (PLC/PRF/5 (PLC5) cells) does the source give for Cc1ccc(C(=O)Nc2ccc(Cl)c(C(F)(F)F)c2)cc1Nc1cc(-c2ccccc2)ncn1 [SCT-1006, N-(4-chloro-3-(trifluoromethyl)phenyl)-4-methyl-3-((6-phenylpyrimidin-4-yl)amino)benzamide] here?
**A.** > 20 µM

**Q.** And the “AMPK T172 activity” value (AMPK T172)?
**A.** 1.3 fold

**Q.** Which IC50 (PLC/PRF/5 (PLC5) cells) does the source give for Cc1ccc(C(=O)Nc2ccc(Cl)c(C(F)(F)F)c2)cc1Nc1nccc(-c2cccc(C#N)c2)n1 [SCT-1002, N-(4-chloro-3-(trifluoromethyl)phenyl)-3-((4-(3-cyanophenyl)pyrimidin-2-yl)amino)-4-methylbenzamide] here?
**A.** > 20 µM

**Q.** And the “AMPK T172 activity” value (AMPK T172)?
**A.** 1.2 fold

**Q.** For COC(=O)c1cccc(NC(=O)Nc2cccc(Nc3nccc(-c4ccc[nH]4)n3)c2)c1 [SCT-1037], which IC50 (PLC/PRF/5 (PLC5) cells) is on record?
**A.** > 20 µM

**Q.** Which IC50 (PLC/PRF/5 (PLC5) cells) does the source give for Cc1ccc(C(=O)Nc2ccc(Cl)c(C(F)(F)F)c2)cc1Nc1nccc(-c2ccc(OC(F)(F)F)cc2)n1 [SCT-1010, N-(4-chloro-3-(trifluoromethyl)phenyl)-4-methyl-3-((4-(4-(trifluoromethoxy)phenyl)pyrimidin-2-yl)amino)benzamide] here?
**A.** > 20 µM

**Q.** What about the “AMPK T172 activity” value (AMPK T172) of the same compound?
**A.** 1.0 fold

**Q.** With CCc1cccc(NC(=O)Nc2cccc(Nc3nccc(-c4ccc[nH]4)n3)c2)c1 [SCT-1033] as the compound, how does the IC50 (PLC/PRF/5 (PLC5) cells) read?
**A.** > 20 µM

**Q.** What does the source list for Cc1ccc(C(=O)Nc2ccc(Cl)c(C(F)(F)F)c2)cc1Nc1nccc(-c2ccc[nH]2)n1 [SCT-1003, 3-((4-(1H-pyrrol-2-yl)pyrimidin-2-yl)amino)-N-(4-chloro-3-(trifluoromethyl)phenyl)-4-methylbenzamide]?
**A.** IC50 (PLC/PRF/5 (PLC5) cells): > 20 µM; AMPK T172 activity (AMPK T172): 1.1 fold

**Q.** For O=C(Nc1cccc(Nc2nccc(-c3cc(Cl)cc(Cl)c3)n2)c1)Nc1ccc(Cl)c(C(F)(F)F)c1 [SCT-1023, 1-(4-chloro-3-(trifluoromethyl)phenyl)-3-(3-((4-(3,5-dichlorophenyl)pyrimidin-2-yl)amino)phenyl)urea], which IC50 (PLC/PRF/5 (PLC5) cells) is on record?
**A.** > 20 µM

**Q.** Which results are given for O=C(Nc1cccc(Nc2nccc(-c3ccc(C(F)(F)F)cc3)n2)c1)Nc1ccc(Cl)c(C(F)(F)F)c1 [SCT-1021, 1-(4-chloro-3-(trifluoromethyl)phenyl)-3-(3-((4-(4-(trifluoromethyl)phenyl)pyrimidin-2-yl)amino)phenyl)urea]?
**A.** IC50 (PLC/PRF/5 (PLC5) cells): > 20 µM; AMPK T172 activity (AMPK T172): 1.2 fold

**Q.** With Cc1ccc(C(=O)Nc2ccc(Cl)c(C(F)(F)F)c2)cc1Nc1nccc(-c2ccccc2)n1 [SCT-1004, N-(4-chloro-3-(trifluoromethyl)phenyl)-4-methyl-3-((4-phenylpyrimidin-2-yl)amino)benzamide] as the compound, how does the IC50 (PLC/PRF/5 (PLC5) cells) read?
**A.** > 20 µM

**Q.** What about the “AMPK T172 activity” value (AMPK T172) of the same compound?
**A.** 1.1 fold

**Q.** With COC(=O)c1cc(NC(=O)Nc2cccc(Nc3nccc(-c4ccc[nH]4)n3)c2)ccc1C [SCT-1039, Methyl 5-(3-(3-((4-(1H-pyrrol-2-yl)pyrimidin-2-yl)amino)phenyl)ureido)-2-methylbenzoate] as the compound, how does the IC50 (PLC/PRF/5 (PLC5) cells) read?
**A.** > 20 µM

**Q.** With Cc1ccc(C(=O)Nc2ccc(Cl)c(C(F)(F)F)c2)cc1Nc1nccc(-c2ccc(C(F)(F)F)cc2)n1 [SCT-1011, N-(4-chloro-3-(trifluoromethyl)phenyl)-4-methyl-3-((4-(4-(trifluoromethyl)phenyl)pyrimidin-2-yl)amino)benzamide] as the compound, how does the IC50 (PLC/PRF/5 (PLC5) cells) read?
**A.** > 20 µM

**Q.** And the “AMPK T172 activity” value (AMPK T172)?
**A.** 1.1 fold

**Q.** With COc1ccc2ccccc2c1-c1ccnc(Nc2cc(C(=O)Nc3ccc(Cl)c(C(F)(F)F)c3)ccc2C)n1 [SCT-1005, N-(4-chloro-3-(trifluoromethyl)phenyl)-3-((4-(2-methoxynaphthalen-1-yl)pyrimidin-2-yl)amino)-4-methylbenzamide] as the compound, how does the IC50 (PLC/PRF/5 (PLC5) cells) read?
**A.** > 20 µM

**Q.** And the “AMPK T172 activity” value (AMPK T172)?
**A.** 1.0 fold

**Q.** Which IC50 (PLC/PRF/5 (PLC5) cells) does the source give for O=C(Nc1cccc(Nc2nccc(-c3ccccc3)n2)c1)Nc1ccc(Cl)c(C(F)(F)F)c1 [SCT-1016, 1-(4-chloro-3-(trifluoromethyl)phenyl)-(3-((4-phenylpyrimidin-2-yl)amino)phenyl)urea] here?
**A.** > 20 µM

**Q.** And the “AMPK T172 activity” value (AMPK T172)?
**A.** 1.0 fold

**Q.** Which IC50 (PLC/PRF/5 (PLC5) cells) does the source give for Cc1ccc(C(=O)Nc2ccc(Cl)c(C(F)(F)F)c2)cc1Nc1nccc(-c2cccs2)n1 [SCT-1007, N-(4-chloro-3-(trifluoromethyl)phenyl)-4-methyl-3-((4-(thiophen-2-yl)pyrimidin-2-yl)amino)benzamide] here?
**A.** > 20 µM

**Q.** And the “AMPK T172 activity” value (AMPK T172)?
**A.** 1.1 fold

**Q.** With Cc1cc(-c2ccnc(Nc3cc(C(=O)Nc4ccc(Cl)c(C(F)(F)F)c4)ccc3C)n2)ccc1F [SCT-1009, N-(4-chloro-3-(trifluoromethyl)phenyl)-3-((4-(4-fluoro-3-methylphenyl)pyrimidin-2-yl)amino)-4-methylbenzamide] as the compound, how does the IC50 (PLC/PRF/5 (PLC5) cells) read?
**A.** > 20 µM

**Q.** And the “AMPK T172 activity” value (AMPK T172)?
**A.** 1.1 fold

**Q.** With Cc1ccc(C(=O)Nc2ccc(Cl)c(C(F)(F)F)c2)cc1Nc1nccc(-c2ccc(C#N)cc2)n1 [SCT-1001, N-(4-chloro-3-(trifluoromethyl)phenyl)-(3)-((4-(4-cyanophenyl)pyrimidin-2-yl)amino)-4-methylbenzamide] as the compound, how does the IC50 (PLC/PRF/5 (PLC5) cells) read?
**A.** > 20 µM

**Q.** For CCCCCCCCCCC[C@@H](C[C@@H]1OC(=O)[C@H]1CCCCCC)OC(=O)[C@H](CC(C)C)NC=O [orlistat, reference compound], which body weight lost [1] is on record?
**A.** similar

**Q.** Which IC50 (PLC/PRF/5 (PLC5) cells) does the source give for CSc1cccc(-c2ccnc(Nc3cc(C(=O)Nc4ccc(Cl)c(C(F)(F)F)c4)ccc3C)n2)c1 [SCT-1008, N-(4-chloro-3-(trifluoromethyl)phenyl)-4-methyl-3-((4-(3-(methylthio)phenyl)pyrimidin-2-yl)amino)benzamide] here?
**A.** > 20 µM

**Q.** And the “AMPK T172 activity” value (AMPK T172)?
**A.** 1.0 fold
